Data published in US20230413819A1, “METHODS FOR CONTROLLING FLEA AND TICK INFESTATIONS IN A MAMMAL” (In the Bowl Animal Health, Inc., priority 2021, published 2023).

Key:
C. felis = test: Efficacy of spinosyn in medicated feed dosed at 0.5 mg/kg, comb counts of live adult fleas (Example 3); type: in vivo; settings: dogs
Text: (§1) Methods: A pool of dogs are to be preliminarily infested with ˜100 unfed adult C. felis in order to produce a pool of 18 dogs that can suitably sustain a reliable infestation rate of approximately 50% of live fleas over a 48-hour period. The dogs with the highest live flea counts are to be randomly allocated to 3 groups (6 dogs per group) based on their pre-treatment flea counts from experimental infestations. The first treatment group is to be the control group and groups 2-3 are to be the test groups.
The dogs are to be housed individually during the study period and are to have ad libitum access to water.
There is to be an initial acclimation period of at least 4 days during which dogs in test groups 2 and 3 are to be transitioned from a standard certified commercial chow to an unmedicated version of the daily feed. During the acclimation period, the dogs are to be allowed 1 hour to consume the feed, after which the dogs' acceptance of the feed will be observed and recorded.
Dogs in the control group are not to receive a spinosyn or any other flea control treatment. On days 0-29, each dog in test groups 2 and 3 is to be offered its daily feed containing spinosyn for a period of 1 hour. On days 30-37 all dogs will be given regular dog food, without spinosyn, or a physiologically acceptable derivative thereof […]

Ctenocephalides felis = test: Efficacy of spinosyn per os to dogs against Ctenocephalides felis, comb counts of live adult fleas (Example 2); type: in vivo; settings: for percent reduction in live adult flea counts: by the day 14 comb count
Text: as §1, with “pool of 40 dogs are” for “pool of dogs are”, “pool of dogs that” for “pool of 18 dogs that”, “allocated to 4 treatment groups (6” for “allocated to 3 groups (6”, “and groups 2-4 are to” for “and groups 2-3 are to”
The dogs are to be housed individually during the study period and are to be fed a commercial dry dog food ration with ad libitum access to water.
Dogs in the control group are not to receive a spinosyn or any other flea control treatment. Each dog in test groups 2-4 is to be offered its daily ration (dry food) and the individual doses of liquid formulation are to be administered after the individual dog has eaten at least 25% of its total daily ration. After receiving the dose of a spinosyn the dogs are to be allowed to continue eating. This mimics incorporating the spinosyn in feed. Each dog in test groups 2-4 and the control group is to be experimentally infested with 100 unfed adult fleas on test days −1, 5, 12, 19, 28 and 35. Comb counts for live adult fleas are to be conducted on days 2, 7, 14, 21, 30 and 37. The final experimental infestation is to occur five days after the last daily dose of spinosyn.

Substance: spinosad
- efficacy (reduction in live adult flea counts) (C. felis; Group 2, 0.5 mg/kg daily feed formulation 1, by the 14-day comb count): over 90%
- efficacy (reduction in live adult flea counts) (C. felis; Group 3, 0.5 mg/kg daily feed formulation 2, by the 14-day comb count): over 90%
- percent reduction in live adult flea counts (Ctenocephalides felis; Group 2, 0.25 mg/kg daily oral): 100%
- efficacy (reduction in live adult flea counts) (Ctenocephalides felis; Group 3, 0.50 mg/kg daily oral days 0-29, day 37, after wash out period): over 98%
- percent reduction in live adult flea counts (Ctenocephalides felis; Group 3, 0.50 mg/kg daily oral): 100%
- efficacy (reduction in live adult flea counts) (Ctenocephalides felis; Group 4, 1.0 mg/kg daily oral days 0-29, day 37, after wash out period): over 98%
- percent reduction in live adult flea counts (Ctenocephalides felis; Group 4, 1.0 mg/kg daily oral): 100%
